# In patent US9580473B2, “Method of inhibiting HIV-1 binding to genital epithelia using V3 loop-specific peptides and GP340-specific antibodies” (priority 2006, dated 2017):
# Tests used:
# [1] = tested on: HIV (primary M-tropic strain BL2); assay: Trans-infection assay, 293 clone 1D4 stably expressing gp-340 pulsed with HIV, cocultured with PHA-blasts; format: cell-based, HIV-1; conditions: for mean P24, transmission by clone 1D4 in presence of peptide: average of 6 wells
# Procedure: FIG. 1. 293 cells stably expressing cell surface gp-340 enhance the transfer of HIV to target cells. (A) 293 cells and a clone, 1D4, stably expressing gp-340, were stained for surface expression of gp-340 using rabbit polyclonal antibody 1527. Isotype control stained cells shown are 293 cells, but the 1D4 clone gave the same pattern. (B) Clone 1D4 and 293 cells were pulsed with increasing IU of HIV BL2 virus with or without a V3-derived peptide 6284 (10 μg/ml) that blocks Env-gp-340 binding, washed and exposed to PHA-blasts for 7 days. IUs were calculated using PHA-blasts as target cells in a TCID50 assay. Experiment was performed in replicates of 6 wells per viral addition and data is expressed as the percentage of the wells that became infected.
# Parental or gp-340 expressing 293 cells, VK2E6E7, Endo1E6E7, Ect1E6E7, or AGS cells or 1 mm^3 pieces of ectocervix obtained as described below seeded in 96 well plates were incubated with various IU inputs of HIV, in 100 μl final volume for 2 h at 37° C. and then extensively washed. Additional inhibitors, peptides or antibodies, were added to cells 30 min prior to pulsing with virus and replaced after cells were washed. Plates were centrifuged at 1250 rpm for 7 minutes between each wash. […] Infection was monitored by measuring supernatant-associated p24 Gag protein content on day 7. TCID50 was calculated using the Reed-Münch formula.
# Secreted gp-340 found at high levels in the oral cavity and also exists in a cell surface-associated form, although mRNA containing exon 55, which encodes the putative transmembrane domain, has not yet been detected. […] The gp-340 expressing cell lines were measured for their ability to transmit cell-free HIV to human PHA- and IL-2-stimulated PBMCs (PHA-blasts). […] Infection was monitored by p24 Gag protein content in the culture supernatant in each well and scored for the presence or absence of infection. The assay used 6 replicates of cells for each viral dilution and condition and calculated the number of wells that became infected at each amount of added virus. […]
# HIV [2] = assay: Direct HIV infection of PHA-blasts with peptide added before HIV; format: cell-based, HIV-1; conditions: peptide added to PHA-blasts prior to HIV
# HIV strain BL2 = assay: Trans-infection assay, AGS cells expressing endogenous gp-340 to T cell blasts; format: cell-based, HIV-1; conditions: peptide 10 μg/ml, 15 min preincubation, p24 7 days later
# Procedure: FIG. 2 Transmission of HIV by AGS cells expressing endogenous gp-340 is inhibited by peptide corresponding to the V3 domain of Env. AGS cells were preincubated with gp-340-specific peptide 6283 or 6284, and control peptide 6220 (10 μg/ml) for 15 min and then pulsed with decreasing amounts of HIV strain BL2. After viral exposure, the cells were washed four times to remove unbound virus and cocultured with T cell blasts in the absence of peptides for 24 h. The T cell blasts were then moved to new wells and p24 Gag antigen content was measured 7 days later. IUs were calculated using PHA-blasts as target cells in a TCID50 assay. Experiment was performed in replicates of six per virus concentration. Data is expressed as the percentage of the 6 wells in which the cells became infected for each virus concentration.
# (§1) Parental or gp-340 expressing 293 cells, VK2E6E7, Endo1E6E7, Ect1E6E7, or AGS cells or 1 mm^3 pieces of ectocervix obtained as described below seeded in 96 well plates were incubated with various IU inputs of HIV, in 100 μl final volume for 2 h at 37° C. and then extensively washed. Additional inhibitors, peptides or antibodies, were added to cells 30 min prior to pulsing with virus and replaced after cells were washed. Plates were centrifuged at 1250 rpm for 7 minutes between each wash. After viral incubation and washing, PHA-blasts were cocultured with the pulsed cells for 7 days at 37° C. with IL-2. Infection was monitored by measuring supernatant-associated p24 Gag protein content on day 7. TCID50 was calculated using the Reed-Münch formula.
# To examine native expressed gp-340, the gastrointestinal carcinoma cell line AGS, which is expresses gp-340, was analyzed for its ability to transmit HIV in vitro. AGS cells enhanced transmission of HIV to target CD4^+ T cells. Cells were infected in 50% of the wells when 0.08 infectious units (IU) of virus were pulsed per well. This represented a 6-fold enhancement in the viral infectivity by gp-340. Peptides 6283 and 6284, derived from the proposed gp-340 binding site in Env, abolished the enhancement in infectivity. […]
# gp-340 = gp-340 (Homo sapiens, UniProt Q9UGM3); conditions: previously shown/demonstrated; cited from earlier work
# Sequence of gp-340 (Q9UGM3 20-2413): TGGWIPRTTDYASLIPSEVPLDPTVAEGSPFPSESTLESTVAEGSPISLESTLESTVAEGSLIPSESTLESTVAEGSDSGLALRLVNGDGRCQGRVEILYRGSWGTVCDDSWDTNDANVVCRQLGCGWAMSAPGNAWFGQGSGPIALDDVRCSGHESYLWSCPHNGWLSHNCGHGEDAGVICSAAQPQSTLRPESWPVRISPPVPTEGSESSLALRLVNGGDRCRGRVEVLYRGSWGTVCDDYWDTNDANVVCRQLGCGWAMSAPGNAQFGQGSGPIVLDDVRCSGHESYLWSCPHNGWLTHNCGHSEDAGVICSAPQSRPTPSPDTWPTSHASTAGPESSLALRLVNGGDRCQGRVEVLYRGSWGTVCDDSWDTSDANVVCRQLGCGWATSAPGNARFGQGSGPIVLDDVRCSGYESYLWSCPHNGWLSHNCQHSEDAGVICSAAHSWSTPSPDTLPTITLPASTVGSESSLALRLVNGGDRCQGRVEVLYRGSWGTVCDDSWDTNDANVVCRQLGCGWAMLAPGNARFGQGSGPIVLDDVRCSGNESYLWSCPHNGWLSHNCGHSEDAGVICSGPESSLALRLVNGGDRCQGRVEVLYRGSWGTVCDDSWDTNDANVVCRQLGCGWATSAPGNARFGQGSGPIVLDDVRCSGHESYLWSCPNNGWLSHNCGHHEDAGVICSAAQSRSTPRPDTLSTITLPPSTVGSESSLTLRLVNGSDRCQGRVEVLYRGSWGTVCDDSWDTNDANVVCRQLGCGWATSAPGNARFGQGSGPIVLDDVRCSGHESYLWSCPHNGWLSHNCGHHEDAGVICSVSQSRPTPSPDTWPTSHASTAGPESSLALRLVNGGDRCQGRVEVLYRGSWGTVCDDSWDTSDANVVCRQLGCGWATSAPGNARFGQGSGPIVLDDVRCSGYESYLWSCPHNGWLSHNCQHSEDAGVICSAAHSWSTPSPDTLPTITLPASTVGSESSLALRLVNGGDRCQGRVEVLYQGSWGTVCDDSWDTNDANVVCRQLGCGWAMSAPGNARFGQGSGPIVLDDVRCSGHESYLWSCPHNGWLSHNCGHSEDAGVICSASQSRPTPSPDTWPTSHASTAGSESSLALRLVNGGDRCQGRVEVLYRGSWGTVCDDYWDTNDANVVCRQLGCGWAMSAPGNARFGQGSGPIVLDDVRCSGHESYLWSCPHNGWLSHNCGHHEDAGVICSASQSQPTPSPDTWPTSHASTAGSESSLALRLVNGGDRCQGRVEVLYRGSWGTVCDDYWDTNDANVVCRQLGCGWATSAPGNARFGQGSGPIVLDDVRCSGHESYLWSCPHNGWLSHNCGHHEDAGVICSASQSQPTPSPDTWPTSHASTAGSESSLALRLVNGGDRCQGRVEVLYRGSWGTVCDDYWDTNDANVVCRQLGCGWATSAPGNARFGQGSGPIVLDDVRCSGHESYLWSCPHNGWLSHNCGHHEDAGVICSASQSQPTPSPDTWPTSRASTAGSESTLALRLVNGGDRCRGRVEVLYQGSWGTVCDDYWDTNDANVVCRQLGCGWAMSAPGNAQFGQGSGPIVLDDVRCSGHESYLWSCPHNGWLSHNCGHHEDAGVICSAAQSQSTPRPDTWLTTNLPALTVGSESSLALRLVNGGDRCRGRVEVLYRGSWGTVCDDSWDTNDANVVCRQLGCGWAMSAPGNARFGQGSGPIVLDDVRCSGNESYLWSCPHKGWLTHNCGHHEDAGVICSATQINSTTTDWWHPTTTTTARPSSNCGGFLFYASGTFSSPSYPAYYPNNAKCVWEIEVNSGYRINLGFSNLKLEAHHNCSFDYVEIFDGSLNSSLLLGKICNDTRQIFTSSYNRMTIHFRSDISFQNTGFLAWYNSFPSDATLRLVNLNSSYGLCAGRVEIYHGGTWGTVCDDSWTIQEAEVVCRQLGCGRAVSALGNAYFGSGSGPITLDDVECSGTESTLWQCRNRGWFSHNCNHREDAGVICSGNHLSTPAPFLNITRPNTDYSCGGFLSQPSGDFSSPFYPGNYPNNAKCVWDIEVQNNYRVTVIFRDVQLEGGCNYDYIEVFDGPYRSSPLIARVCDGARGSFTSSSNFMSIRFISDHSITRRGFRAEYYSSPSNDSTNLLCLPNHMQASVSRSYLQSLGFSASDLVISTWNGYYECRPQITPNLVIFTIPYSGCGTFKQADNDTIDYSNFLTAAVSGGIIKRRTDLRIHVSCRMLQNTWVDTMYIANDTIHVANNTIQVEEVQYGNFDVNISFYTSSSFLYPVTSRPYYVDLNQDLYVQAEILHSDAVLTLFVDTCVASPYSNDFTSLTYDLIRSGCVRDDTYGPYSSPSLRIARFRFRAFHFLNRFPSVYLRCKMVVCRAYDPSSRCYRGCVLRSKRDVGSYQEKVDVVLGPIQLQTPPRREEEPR
# HIV-1 BL2 virus = assay: Trans-infection assay, vaginal epithelial cells (VK2E6E7) to PHA-blasts; format: cell-based; conditions: pre-incubation with antibody, or peptide at time of viral pulsing; p24 after 7 days
# Procedure: Vaginal epithelial cells (VK2E6E7) were incubated with isotype control or gp-340-specific antibodies 116 or DAPA and then pulsed with HIV-1 BL2 virus. After extensive washing, PHA-blasts were added for 24 h and then moved to new plates without VK2E6E7 cells. After 7 days, p24 Gag protein content in the supernatant was measured. Samples were run in triplicate and standard error of the mean is given.
# as §1
# Cell lines were pulsed with decreasing amounts of HIV Ba-L, washed and had target cells immediately added or added after 2 or 4 days of culture. […]
# HIV [3] = assay: Trans-infection by genital tract epithelial cell lines; format: cell-based; conditions: treatment completely removes syndecan expression
molecule,measurement,setting,value
CTRPNYNKRKRIHIG [peptide 6284],"mean P24, transmission by clone 1D4 in presence of peptide","[1]; 0.11 IU viral input, without peptide 184",7
same,"mean P24, transmission by clone 1D4 in presence of peptide","[1]; 0.33 IU viral input, without peptide 239",7
same,enhancement of HIV trans-infection (TCID50) by gp-340-expressing cells,"[1]; gp-340-expressing 293 cells pre-incubated with peptide 10 μg/ml, HIV BL2, PHA-blasts 7 days",abolished
same,infection of PHA-blasts,HIV [2],did not affect
same,enhancement in infectivity (transmission of HIV by AGS cells),HIV strain BL2,abolished
same,Env binding to gp-340,gp-340,block
DAPA,ability of VK2E6E7 cells to bind and transmit HIV to PHA-blasts,HIV-1 BL2 virus,markedly decreased
same,Env binding to gp-340,gp-340,inhibit
"KEATTTLFCASDAKA (Human) [peptide 6220, control peptide derived from another part of Env, reference compound]",enhancement in infectivity (transmission of HIV by AGS cells),HIV strain BL2,had no impact
VQINCTRPNYNKRKR [peptide 6283],enhancement in infectivity (transmission of HIV by AGS cells),HIV strain BL2,abolished
"heparinase: enzyme treatment that completely removes syndecan expression (protein, UniProt Q59289 25-659, looked up) Heparin-sulfate lyase: QSSSITRKDFDHINLEYSGLEKVNKAVAAGNYDDAAKALLAYYREKSKAREPDFSNAEKPADIRQPIDKVTREMADKALVHQFQPHKGYGYFDYGKDINWQMWPVKDNEVRWQLHRVKWWQAMALVYHATGDEKYAREWVYQYSDWARKNPLGLSQDNDKFVWRPLEVSDRVQSLPPTFSLFVNSPAFTPAFLMEFLNSYHQQADYLSTHYAEQGNHRLFEAQRNLFAGVSFPEFKDSPRWRQTGISVLNTEIKKQVYADGMQFELSPIYHVAAIDIFLKAYGSAKRVNLEKEFPQSYVQTVENMIMALISISLPDYNTPMFGDSWITDKNFRMAQFASWARVFPANQAIKYFATDGKQGKAPNFLSKALSNAGFYTFRSGWDKNATVMVLKASPPGEFHAQPDNGTFELFIKGRNFTPDAGVFVYSGDEAIMKLRNWYRQTRIHSTLTLDNQNMVITKARQNKWETGNNLDVLTYTNPSYPNLDHQRSVLFINKKYFLVIDRAIGEATGNLGVHWQLKEDSNPVFDKTKNRVYTTYRDGNNLMIQSLNADRTSLNEEEGKVSYVYNKELKRPAFVFEKPKKNAGTQNFVSIVYPYDGQKAPEISIRENKGNDFEKGKLNLTLTINGKQQLVLVP",trans-infection after heparinase treatment,HIV [3],no effect
